The record followed here is US9617267B2, “Compounds and methods for kinase modulation, and indications therefor” (Plexxikon Inc., priority 2009, dated 2017).

In one data set the target is c-Raf-1 (Homo sapiens, UniProt P04049). The data set can be described thus: c-Raf-1 kinase activity biochemical assay (AlphaScreen, biotin-MEK1 phosphorylation). In outline: (§1)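 Compounds from a 0.1 mM DMSO stock were tested at 8 serially diluted points. Kinase reactions with 100 μM ATP (final) ran 45 min at room temperature, then were stopped with EDTA buffer containing anti-phospho-MEK1/2 antibody plus streptavidin donor and protein A acceptor beads.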
c-Raf-1, sequence (P04049 whole entry, looked up): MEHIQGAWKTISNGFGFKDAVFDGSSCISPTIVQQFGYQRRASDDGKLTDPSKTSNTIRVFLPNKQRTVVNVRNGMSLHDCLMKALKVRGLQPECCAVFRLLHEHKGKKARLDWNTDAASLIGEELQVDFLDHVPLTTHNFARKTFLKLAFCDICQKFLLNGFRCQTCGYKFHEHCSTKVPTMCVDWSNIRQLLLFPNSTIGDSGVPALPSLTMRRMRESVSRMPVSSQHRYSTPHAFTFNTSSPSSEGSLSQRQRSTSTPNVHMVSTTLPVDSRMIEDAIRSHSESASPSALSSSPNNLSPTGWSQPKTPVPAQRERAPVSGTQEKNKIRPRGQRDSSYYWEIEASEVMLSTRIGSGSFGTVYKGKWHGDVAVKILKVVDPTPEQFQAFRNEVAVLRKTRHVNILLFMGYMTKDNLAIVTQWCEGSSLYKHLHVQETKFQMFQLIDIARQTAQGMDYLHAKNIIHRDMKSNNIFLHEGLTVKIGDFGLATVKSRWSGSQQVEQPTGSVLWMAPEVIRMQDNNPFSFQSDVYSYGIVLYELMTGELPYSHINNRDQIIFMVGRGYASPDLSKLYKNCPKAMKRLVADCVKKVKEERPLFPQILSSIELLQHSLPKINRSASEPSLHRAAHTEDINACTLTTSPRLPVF

The next data set has as its target CYP2C19 (Homo sapiens (Human), UniProt P33261). The data set can be described thus: CYP enzyme inhibition, fluorescent substrate (CEC). In a few lines: (§2)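 First, 100 mM DMSO stocks are diluted into acetonitrile, then twofold through co-factor mix for 10 points. Next, mixtures are preincubated 10 min at 37 °C.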
Another data set addresses CYP3A4(BQ) (Homo sapiens (Human), UniProt P08684). The data set can be described thus: CYP enzyme inhibition, fluorescent substrate BQ. In outline: as §2
For data set [1], the target named is B-Raf (Homo sapiens (Human), UniProt P15056). Description: B-Raf kinase activity biochemical assay (AlphaScreen, biotin-MEK1 phosphorylation). The note with it: B-Raf. In a few lines:
as §1
(In general: Bead proximity is the source of the signal in Alpha formats.)

Data set [2] concerns B-Raf. The description is as above. Conditions: for Biochemical activity ratio B/V600E: ratio of IC50 B-Raf / B-Raf V600E; for Biochemical activity ratio B/C: ratio of IC50 B-Raf / c-Raf-1. In a few lines: as §1
The target in a further data set is CYP2C9 (Homo sapiens (Human), UniProt P11712). Description: CYP enzyme inhibition, fluorescent substrate (MFC). In a few lines: as §2
CYP2C9, sequence (P11712 whole entry): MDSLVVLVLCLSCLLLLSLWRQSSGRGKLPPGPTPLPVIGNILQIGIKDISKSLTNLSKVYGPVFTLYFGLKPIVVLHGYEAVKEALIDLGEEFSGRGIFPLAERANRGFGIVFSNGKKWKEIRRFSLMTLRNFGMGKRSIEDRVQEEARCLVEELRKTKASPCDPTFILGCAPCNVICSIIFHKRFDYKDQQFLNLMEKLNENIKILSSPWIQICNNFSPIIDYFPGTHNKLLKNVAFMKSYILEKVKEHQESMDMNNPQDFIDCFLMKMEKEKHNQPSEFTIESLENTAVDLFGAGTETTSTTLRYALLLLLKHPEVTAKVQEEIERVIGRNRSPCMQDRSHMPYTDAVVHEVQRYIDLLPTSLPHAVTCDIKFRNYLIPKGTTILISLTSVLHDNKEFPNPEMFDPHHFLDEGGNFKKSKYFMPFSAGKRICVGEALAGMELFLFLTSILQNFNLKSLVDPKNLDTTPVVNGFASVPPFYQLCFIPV
A further data set deals with CYP1A2 (Homo sapiens (Human), UniProt P05177). The data set can be described thus: CYP enzyme inhibition, fluorescent substrate (CEC). Conditions: human, 15 min. In outline:
(§3)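 IC50 derived from loss of fluorescent metabolite across a 10-point 1:1 dilution series. CYP2D6: 1.5 pmol enzyme, 1.5 μM AMMC, 30 min at 37 °C, 409/530 nm; CYP1A2: 0.5 pmol, 5 μM CEC, 15 min, 409/460 nm. Compounds pre-incubated 10 min in NADPH-regenerating mix.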

In another data set the target is B-Raf V600E (Homo sapiens (Human), UniProt P15056, V600E). Description: B-Raf V600E kinase activity biochemical assay (AlphaScreen, biotin-MEK1 phosphorylation). The note with it: for IC50: B-Raf V600E; for Biochemical activity ratio V600E/C: ratio of IC50 B-Raf V600E / c-Raf-1. In a few lines:
as §1

For another data set, the target named is CYP3A4(BFC) (Homo sapiens (Human), UniProt P08684). Description: CYP enzyme inhibition, fluorescent substrate BFC. In outline: as §2
CYP3A4(BFC), sequence (P08684 whole entry): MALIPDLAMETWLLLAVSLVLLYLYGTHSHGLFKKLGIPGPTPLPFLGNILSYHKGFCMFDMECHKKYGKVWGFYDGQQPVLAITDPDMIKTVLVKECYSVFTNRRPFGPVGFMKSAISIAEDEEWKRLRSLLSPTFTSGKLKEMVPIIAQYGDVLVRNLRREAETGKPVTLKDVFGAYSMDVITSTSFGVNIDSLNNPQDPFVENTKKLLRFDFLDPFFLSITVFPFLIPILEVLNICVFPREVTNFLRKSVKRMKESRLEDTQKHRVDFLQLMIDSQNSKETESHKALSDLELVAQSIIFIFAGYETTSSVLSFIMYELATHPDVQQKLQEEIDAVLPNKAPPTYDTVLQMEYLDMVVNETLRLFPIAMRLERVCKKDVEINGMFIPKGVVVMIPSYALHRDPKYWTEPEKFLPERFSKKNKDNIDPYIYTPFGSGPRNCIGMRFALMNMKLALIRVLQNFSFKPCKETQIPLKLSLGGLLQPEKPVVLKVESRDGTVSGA
A further data set deals with CYP2D6 (Homo sapiens (Human), UniProt P10635). The data set can be described thus: CYP enzyme inhibition, fluorescent substrate (AMMC). It counts as in vitro ADME. The note with it: read-out: Cyp IC50 2D6. In a few lines: as §3
CYP2D6, sequence (P10635 whole entry): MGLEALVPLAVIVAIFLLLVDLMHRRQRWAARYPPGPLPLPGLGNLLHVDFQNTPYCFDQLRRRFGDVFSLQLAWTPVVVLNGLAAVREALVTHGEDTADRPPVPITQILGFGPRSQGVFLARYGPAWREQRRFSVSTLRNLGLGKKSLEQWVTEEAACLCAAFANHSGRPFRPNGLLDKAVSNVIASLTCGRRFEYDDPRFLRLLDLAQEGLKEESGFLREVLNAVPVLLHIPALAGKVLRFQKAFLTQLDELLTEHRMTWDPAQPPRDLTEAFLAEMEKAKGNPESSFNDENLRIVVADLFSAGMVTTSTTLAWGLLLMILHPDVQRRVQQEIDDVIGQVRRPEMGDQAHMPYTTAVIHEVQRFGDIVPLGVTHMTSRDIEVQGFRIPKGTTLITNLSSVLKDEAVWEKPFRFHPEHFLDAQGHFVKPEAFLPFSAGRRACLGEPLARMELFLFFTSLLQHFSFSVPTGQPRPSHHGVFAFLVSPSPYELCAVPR
The nature of data set [3]: Relative solubility by turbidity threshold concentration in aqueous buffers (pH 1.5, 4.5, 6.8, 7.4). Format: physicochemical. The note with it: for turbidity threshold (L, M, H) 1.4: pH 1.4 [sic] (method: SGF pH 1.5); for turbidity threshold (L, M, H) 4.5: pH 4.5 (SIF); for turbidity threshold (L, M, H) 6.8: pH 6.8 (SIF); for turbidity threshold (L, M, H) 7.4: pH 7.4 (HEPES). In outline:
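Solubility class (high >250 μM, moderate 31.3–250 μM, low <31.3 μM) comes from the concentration where absorbance reaches a 0.01 threshold, averaged across 490/535/650 nm. Samples were compound dilutions from DMSO stock, 1 μL into 99 μL buffer at pH 1.5, 4.5, 6.8 or 7.4.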

Setting [4] is: read-out: Cyp IC50 2C19, CYP2C19, substrate CEC.
The mark [5] stands for this setting: read-out: Cyp IC50 3A4(BQ), CYP3A4, substrate BQ.
Setting [6] is: read-out: Cyp IC50 2C9, CYP2C9, substrate MFC.
[7] abbreviates: read-out: Cyp IC50 3A4(BFC), CYP3A4, substrate BFC.

Read-outs that look alike come from different tables or passages of the source.

CYP3A4(BQ), sequence (P08684 whole entry): as the sequence (P08684 whole entry) above
CYP2C19, sequence (P33261 whole entry): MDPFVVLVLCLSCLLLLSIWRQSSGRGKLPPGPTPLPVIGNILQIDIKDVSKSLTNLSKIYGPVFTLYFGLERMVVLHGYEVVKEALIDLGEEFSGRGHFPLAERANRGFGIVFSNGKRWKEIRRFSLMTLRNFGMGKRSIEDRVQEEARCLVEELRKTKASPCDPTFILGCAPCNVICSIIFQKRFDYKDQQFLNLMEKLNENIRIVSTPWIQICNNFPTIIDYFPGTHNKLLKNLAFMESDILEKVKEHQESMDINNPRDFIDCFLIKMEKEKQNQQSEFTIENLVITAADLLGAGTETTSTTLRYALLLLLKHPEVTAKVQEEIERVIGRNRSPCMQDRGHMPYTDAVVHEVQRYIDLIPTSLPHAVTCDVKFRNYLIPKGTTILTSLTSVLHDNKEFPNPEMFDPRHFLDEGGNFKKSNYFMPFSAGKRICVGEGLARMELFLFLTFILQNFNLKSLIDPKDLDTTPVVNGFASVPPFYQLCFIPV
B-Raf (Homo sapiens (Human), UniProt P15056), sequence (P15056 whole entry): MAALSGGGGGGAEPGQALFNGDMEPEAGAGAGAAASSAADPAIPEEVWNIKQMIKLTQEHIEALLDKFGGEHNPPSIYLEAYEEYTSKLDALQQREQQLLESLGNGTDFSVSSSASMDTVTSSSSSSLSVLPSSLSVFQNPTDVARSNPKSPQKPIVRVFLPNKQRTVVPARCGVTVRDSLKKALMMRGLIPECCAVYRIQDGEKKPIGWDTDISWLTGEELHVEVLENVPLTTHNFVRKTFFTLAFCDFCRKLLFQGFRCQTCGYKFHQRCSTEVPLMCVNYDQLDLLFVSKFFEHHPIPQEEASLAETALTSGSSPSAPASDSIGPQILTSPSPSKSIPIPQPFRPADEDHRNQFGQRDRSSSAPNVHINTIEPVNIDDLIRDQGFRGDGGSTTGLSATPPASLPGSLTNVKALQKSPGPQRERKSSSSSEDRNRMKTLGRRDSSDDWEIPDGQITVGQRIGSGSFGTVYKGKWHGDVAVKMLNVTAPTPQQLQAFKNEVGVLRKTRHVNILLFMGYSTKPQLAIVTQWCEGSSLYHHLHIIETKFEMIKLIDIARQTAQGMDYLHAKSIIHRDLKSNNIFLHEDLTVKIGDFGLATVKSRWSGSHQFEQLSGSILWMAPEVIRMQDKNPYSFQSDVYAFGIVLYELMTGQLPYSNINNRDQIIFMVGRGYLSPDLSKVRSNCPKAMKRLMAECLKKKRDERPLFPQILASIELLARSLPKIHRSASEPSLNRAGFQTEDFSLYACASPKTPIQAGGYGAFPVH
CYP1A2, sequence (P05177 whole entry): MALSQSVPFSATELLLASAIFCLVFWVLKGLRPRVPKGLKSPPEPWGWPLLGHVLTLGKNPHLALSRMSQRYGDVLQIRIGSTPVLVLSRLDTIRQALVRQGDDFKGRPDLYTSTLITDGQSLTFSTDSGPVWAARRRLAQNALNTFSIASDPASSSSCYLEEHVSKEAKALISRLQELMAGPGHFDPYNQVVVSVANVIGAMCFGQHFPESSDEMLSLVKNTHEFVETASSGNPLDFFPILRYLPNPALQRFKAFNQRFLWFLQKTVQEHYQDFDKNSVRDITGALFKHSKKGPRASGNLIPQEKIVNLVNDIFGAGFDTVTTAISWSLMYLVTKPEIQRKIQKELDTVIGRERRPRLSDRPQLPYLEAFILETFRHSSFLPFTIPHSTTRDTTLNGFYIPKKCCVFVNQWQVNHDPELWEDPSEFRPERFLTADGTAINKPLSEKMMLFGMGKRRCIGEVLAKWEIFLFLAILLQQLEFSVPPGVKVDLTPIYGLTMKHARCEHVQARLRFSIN
B-Raf V600E, sequence (P15056 whole entry V600E): as the sequence (P15056 whole entry) above, with V600E counted along it

As for `COCCNc1ncnc2[nH]cc(C(=O)c3c(F)ccc(NS(=O)(=O)c4ccc(C(F)(F)F)cc4)c3F)c12` [P-1058, N-{2,4-Difluoro-3-[4-(2-methoxy-ethylamino)-7H-pyrrolo[2,3-d]pyrimidine-5-carbonyl]-phenyl}-4-trifluoromethyl-benzenesulfonamide], the IC50 against c-Raf-1 was less than 0.1 µM; on CYP2C19 (setting [4]), more than 10 µM; at CYP3A4(BQ) (setting [5]), more than 10 µM; at B-Raf [1], less than 0.1 µM; at CYP2C9 (setting [6]) it was more than 10 µM; against CYP1A2 it was more than 10 µM. Further, the IC50 is more than 0.1 µM against B-Raf V600E, 5 to 10 µM at CYP3A4(BFC) and more than 10 µM at CYP2D6. Besides, in the data set on B-Raf [2], the “Biochemical activity ratio B/V600E” value was 0.1-10. In addition, the “Biochemical activity ratio B/C” value in the data set on B-Raf [2] is listed as 0.1-10. The “Biochemical activity ratio V600E/C” value at B-Raf V600E was more than 10. Further, the “turbidity threshold (L, M, H) 1.4” value in data set [3] is reported as “M (moderate solubility if the threshold concentration is 31.3 μM to 250 μM)”. The “turbidity threshold (L, M, H) 4.5” value in data set [3] is listed as “L (low solubility if the threshold concentration is <31.3 μM)”. Further, in data set [3], the “turbidity threshold (L, M, H) 6.8” value was “L (low solubility if the threshold concentration is <31.3 μM)”. Further, the “turbidity threshold (L, M, H) 7.4” value in [3] was “L (low solubility if the threshold concentration is <31.3 μM)”.
For `CN(C)CCNc1ncnc2[nH]cc(C(=O)c3c(F)ccc(NS(=O)(=O)c4ccc(C(F)(F)F)cc4)c3F)c12` [P-1059, N-{3-[4-(2-Dimethylamino-ethylamino)-7H-pyrrolo[2,3-d]pyrimidine-5-carbonyl]-2,4-difluoro-phenyl}-4-trifluoromethyl-benzenesulfonamide], the IC50 against c-Raf-1 was less than 0.1 µM; at CYP2C19 (setting [4]), more than 10 µM; on CYP3A4(BQ) (setting [5]), more than 10 µM; on B-Raf [1] it was more than 0.1 µM; at CYP2C9 (setting [6]), more than 10 µM; on CYP1A2 it was more than 10 µM. Besides, the concentration for half-maximal inhibition (IC50) against B-Raf V600E is more than 0.1 µM; on CYP3A4(BFC) (setting [7]) it was more than 10 µM; on CYP2D6, more than 10 µM. The “Biochemical activity ratio B/V600E” value in the data set with B-Raf [2] is listed as 0.1-10. The “Biochemical activity ratio B/C” value in the data set on B-Raf [2] is given as 0.1-10. Also, the “Biochemical activity ratio V600E/C” value on B-Raf V600E is recorded as more than 10. For the same molecule, the “turbidity threshold (L, M, H) 1.4” value in data set [3] was “H (high solubility if the threshold concentration is >250 μm)”. Moreover, the “turbidity threshold (L, M, H) 4.5” value in [3] is “M (moderate solubility if the threshold concentration is 31.3 μM to 250 μM)”. Besides, the “turbidity threshold (L, M, H) 6.8” value in [3] is on record as “M (moderate solubility if the threshold concentration is 31.3 μM to 250 μM)”. Also, the “turbidity threshold (L, M, H) 7.4” value in [3] was “M (moderate solubility if the threshold concentration is 31.3 μM to 250 μM)”.
As for `CCCS(=O)(=O)Nc1ccc(F)c(C(=O)c2c[nH]c3ncnc(NC4COC4)c23)c1F` [P-1060, Propane-1-sulfonic acid {2,4-difluoro-3-[4-(oxetan-3-ylamino)-7H-pyrrolo[2,3-d]pyrimidine-5-carbonyl]-phenyl}-amide], the IC50 at c-Raf-1 is less than 0.1 µM; at CYP2C19 (setting [4]), more than 10 µM; on CYP3A4(BQ) (setting [5]), more than 10 µM; on B-Raf [1], less than 0.1 µM; on CYP2C9 (setting [6]) it was more than 10 µM; against CYP1A2, more than 10 µM. The values for the IC50 against B-Raf V600E, on CYP3A4(BFC) (setting [7]) and at CYP2D6 were less than 0.1 µM, more than 10 µM and more than 10 µM, respectively. In the data set on B-Raf [2], the “Biochemical activity ratio B/V600E” value was 0.1-10. For the same molecule, the “Biochemical activity ratio B/C” value in the data set with B-Raf [2] is on record as more than 10. The “Biochemical activity ratio V600E/C” value on B-Raf V600E is given as 0.1-10. In addition, in data set [3], the “turbidity threshold (L, M, H) 1.4” value is reported as “H (high solubility if the threshold concentration is >250 μm)”. Besides, the “turbidity threshold (L, M, H) 4.5” value in data set [3] was “M (moderate solubility if the threshold concentration is 31.3 μM to 250 μM)”. For the same molecule, the “turbidity threshold (L, M, H) 6.8” value in data set [3] is listed as “H (high solubility if the threshold concentration is >250 μm)”. For the same molecule, the “turbidity threshold (L, M, H) 7.4” value in data set [3] is “H (high solubility if the threshold concentration is >250 μm)”.
Regarding `O=C(c1c(F)ccc(NS(=O)(=O)c2ccc(C(F)(F)F)cc2)c1F)c1c[nH]c2ncnc(N3CCCC3)c12` [P-1061, N-[2,4-Difluoro-3-(4-pyrrolidin-1-yl-7H-pyrrolo[2,3-d]pyrimidine-5-carbonyl)-phenyl]-4-trifluoromethyl-benzenesulfonamide], the IC50 was more than 0.1 µM at c-Raf-1; more than 10 µM on CYP2C19 (setting [4]); more than 10 µM on CYP3A4(BQ) (setting [5]); more than 0.1 µM on B-Raf [1]; more than 10 µM at CYP2C9 (setting [6]); more than 10 µM at CYP1A2. Further, the IC50 at B-Raf V600E is more than 0.1 µM; at CYP3A4(BFC) (setting [7]), more than 10 µM; on CYP2D6 it was more than 10 µM. In addition, in the data set on B-Raf [2], the “Biochemical activity ratio B/V600E” value is on record as 0.1-10. Also, the “Biochemical activity ratio B/C” value with B-Raf [2] is 0.1-10. Also, on B-Raf V600E, the “Biochemical activity ratio V600E/C” value is more than 10. For the same molecule, in data set [3], the “turbidity threshold (L, M, H) 1.4” value is “H (high solubility if the threshold concentration is >250 μm)”. Further, in [3], the “turbidity threshold (L, M, H) 4.5” value is reported as “M (moderate solubility if the threshold concentration is 31.3 μM to 250 μM)”. The “turbidity threshold (L, M, H) 6.8” value in [3] was “M (moderate solubility if the threshold concentration is 31.3 μM to 250 μM)”. Besides, the “turbidity threshold (L, M, H) 7.4” value in [3] is “H (high solubility if the threshold concentration is >250 μm)”.
In the case of `Cn1cc(Nc2ncnc3[nH]cc(C(=O)c4c(F)ccc(NS(=O)(=O)c5ccc(C(F)(F)F)cc5)c4F)c23)cn1` [P-1062, N-{2,4-Difluoro-3-[4-(1-methyl-1H-pyrazol-4-ylamino)-7H-pyrrolo[2,3-d]pyrimidine-5-carbonyl]-phenyl}-4-trifluoromethyl-benzenesulfonamide], the IC50 against c-Raf-1 is less than 0.1 µM; on CYP2C19 (setting [4]), more than 10 µM; against CYP3A4(BQ), 5 to 10 µM; against B-Raf [1], less than 0.1 µM; at CYP2C9 (setting [6]), less than 5 µM; against CYP1A2, more than 10 µM. In addition, the IC50 against B-Raf V600E was less than 0.1 µM; against CYP3A4(BFC), 5 to 10 µM; at CYP2D6 it was more than 10 µM. The “Biochemical activity ratio B/V600E” value with B-Raf [2] is 0.1-10. Further, in the data set on B-Raf [2], the “Biochemical activity ratio B/C” value is given as more than 10. On B-Raf V600E, the “Biochemical activity ratio V600E/C” value is on record as more than 10. In addition, in data set [3], the “turbidity threshold (L, M, H) 1.4” value is “L (low solubility if the threshold concentration is <31.3 μM)”. The “turbidity threshold (L, M, H) 4.5” value in data set [3] is given as “L (low solubility if the threshold concentration is <31.3 μM)”. Further, the “turbidity threshold (L, M, H) 6.8” value in data set [3] is listed as “L (low solubility if the threshold concentration is <31.3 μM)”. Further, in data set [3], the “turbidity threshold (L, M, H) 7.4” value is on record as “L (low solubility if the threshold concentration is <31.3 μM)”.
As for `CCn1cc(Nc2ncnc3[nH]cc(C(=O)c4c(F)ccc(NS(=O)(=O)c5ccc(C(F)(F)F)cc5)c4F)c23)cn1` [P-1063, N-{3-[4-(1-Ethyl-1H-pyrazol-4-ylamino)-7H-pyrrolo[2,3-d]pyrimidine-5-carbonyl]-2,4-difluoro-phenyl}-4-trifluoromethyl-benzenesulfonamide], the IC50 against c-Raf-1 is less than 0.1 µM; against CYP2C19, 5 to 10 µM; on CYP3A4(BQ) (setting [5]) it was less than 5 µM; against B-Raf [1] it was less than 0.1 µM; against CYP2C9, 5 to 10 µM; at CYP1A2, more than 10 µM. Also, the IC50 is more than 0.1 µM at B-Raf V600E, 5 to 10 µM against CYP3A4(BFC) and more than 10 µM on CYP2D6. For the same molecule, in the data set on B-Raf [2], the “Biochemical activity ratio B/V600E” value is recorded as 0.1-10. Besides, the “Biochemical activity ratio B/C” value with B-Raf [2] was more than 10. The “Biochemical activity ratio V600E/C” value at B-Raf V600E was more than 10. Also, the “turbidity threshold (L, M, H) 1.4” value in [3] is “L (low solubility if the threshold concentration is <31.3 μM)”. The “turbidity threshold (L, M, H) 4.5” value in data set [3] is listed as “L (low solubility if the threshold concentration is <31.3 μM)”. Moreover, the “turbidity threshold (L, M, H) 6.8” value in data set [3] is given as “L (low solubility if the threshold concentration is <31.3 μM)”. For the same molecule, the “turbidity threshold (L, M, H) 7.4” value in data set [3] is recorded as “L (low solubility if the threshold concentration is <31.3 μM)”.

The IC50 is the concentration that inhibits the measured activity by half.
